{"source": "paper PMC7006622", "about": "(2019)", "key": {"[1]": {"system": "TWJ molecular switch for 17β-estradiol (B5/G14 split aptamer, with FP1 and CP1) (DNA, aptamer) TAGGGTGCGGCTCTGCGCATTCAATTGCTGCGCGCTGAAGCGCGGAAGCCCGTACTCTATGAGCCTCTG/GCTTCCAGCTTATTGAATTACACGCAGAGGGTACCGTGT/AAACACGGATCCCATA", "experiment": "single-molecule TIRF, fluorescent probe binding kinetics", "details": "1× PBS; apparent; read from calibration curve of probe kon,F and koff,F against Kd; oxygen scavenger system; surface-immobilised DNA"}, "[2]": {"system": "TWJ molecular switch for ATP (B3/G12 split aptamer, with FP1 and CP1) (DNA, aptamer) TGGGATTGGAAGGAGGCGTCCGTACTCTATGAGCCTCTG/TATGAGGGGGTCCACCGTGT/AAACACGGATCCCATA", "experiment": "single-molecule TIRF, transient binding of fluorescent probe", "details": "1× PBS; qualitative; oxygen scavenger system; surface-immobilised DNA"}}, "data": [{"smiles": "C[C@]12CC[C@@H]3c4ccc(O)cc4CC[C@H]3[C@@H]1CC[C@@H]2O", "values": [{"measurement": "Kd", "setting": "[1]", "value": 18, "unit": "nM"}]}, {"smiles": "Nc1ncnc2c1ncn2[C@@H]1O[C@H](COP(=O)(O)OP(=O)(O)OP(=O)(O)O)[C@@H](O)[C@H]1O", "values": [{"measurement": "binding", "setting": "[2]", "value": "yes"}]}]}
